From ChEMBL document CHEMBL1909046, “DrugMatrix in vitro pharmacology data” come the findings set out here.

pIC50, pKi: −log10 of the molar value.

One data set addresses Vasopressin V1a receptor (Homo sapiens, UniProt P37288). The format is cell membranes, Membrane. Particulars: hek293.
Data set [1] deals with Matrix metalloproteinase-9 (Homo sapiens, UniProt P14780). Nature of the data set: biochemical. The class given is cell-based.
Data set [2] deals with 5-hydroxytryptamine receptor 4 (Cavia porcellus, UniProt O70528). The format is cell membranes, Dunkin-Hartley, Striatum, Membrane.
Sequence of 5-hydroxytryptamine receptor 4 (O70528 whole entry): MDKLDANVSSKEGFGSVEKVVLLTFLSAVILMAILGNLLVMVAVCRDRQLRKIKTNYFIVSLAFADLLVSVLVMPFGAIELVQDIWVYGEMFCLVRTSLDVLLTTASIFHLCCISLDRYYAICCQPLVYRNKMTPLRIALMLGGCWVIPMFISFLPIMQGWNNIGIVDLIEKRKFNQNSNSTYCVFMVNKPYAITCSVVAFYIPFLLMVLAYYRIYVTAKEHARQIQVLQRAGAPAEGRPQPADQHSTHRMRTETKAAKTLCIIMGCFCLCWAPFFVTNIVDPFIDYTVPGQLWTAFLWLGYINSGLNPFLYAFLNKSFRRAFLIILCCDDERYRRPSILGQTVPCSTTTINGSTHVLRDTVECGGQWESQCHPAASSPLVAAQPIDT
Data set [3] can be described thus: DRUGMATRIX: beta-Lactamase enzyme inhibition (substrate: Nitrocefin). On the set-up: species or system Bacillus cereus. Particulars: Not Active = under 50% inhibition at 10 µM.
For another data set, the target named is T1, Thromboxane-A synthase (Homo sapiens, UniProt P24557).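 Note: enzyme inhibition assay with PGH2 supplied as substrate; in other assays of this panel Not Active means under 50% inhibition at 10 µM.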
T1 sequence (P24557 whole entry): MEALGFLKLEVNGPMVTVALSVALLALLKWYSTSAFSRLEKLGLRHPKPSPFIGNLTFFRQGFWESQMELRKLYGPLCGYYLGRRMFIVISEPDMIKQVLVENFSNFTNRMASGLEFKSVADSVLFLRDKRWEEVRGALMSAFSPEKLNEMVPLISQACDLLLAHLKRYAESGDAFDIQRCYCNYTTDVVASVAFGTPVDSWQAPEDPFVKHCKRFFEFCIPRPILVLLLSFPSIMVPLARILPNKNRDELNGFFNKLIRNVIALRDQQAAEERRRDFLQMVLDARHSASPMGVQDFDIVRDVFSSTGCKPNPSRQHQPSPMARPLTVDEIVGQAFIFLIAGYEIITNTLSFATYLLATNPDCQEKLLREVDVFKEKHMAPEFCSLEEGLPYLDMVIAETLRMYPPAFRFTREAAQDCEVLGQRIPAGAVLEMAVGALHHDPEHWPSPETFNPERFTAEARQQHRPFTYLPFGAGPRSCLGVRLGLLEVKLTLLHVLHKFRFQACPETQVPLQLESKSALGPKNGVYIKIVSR
The experiment in a line: biochemical. The format is tissue-based, Platelet. Particulars: platelet.

The nature of data set [4]: DRUGMATRIX: Glutamate, AMPA radioligand binding (ligand: [3H] AMPA). As to conditions: Not Active = under 50% inhibition at 10 µM. The class given is cell membranes, Rattus norvegicus, Wistar, Cerebral cortex, Membrane.
A further data set has as its target Acetylcholinesterase (Homo sapiens, UniProt P22303). Nature of the data set: DRUGMATRIX: Acetylcholinesterase enzyme inhibition (substrate: acetylthiocholine). As to conditions: Not Active = under 50% inhibition at 10 µM; for IC50: hek293. The class given is cell-based, HEK293.
Data set [5] concerns the target 5-hydroxytryptamine receptor 6 (Homo sapiens, UniProt P50406). The class given is cell membranes, HeLa, Membrane. As to conditions: for IC50: hela. For all read-outs here: in other assays of this panel Not Active means under 50% inhibition at 10 µM.
In another data set the target is T2, Cytochrome P450 2A6 (Homo sapiens, UniProt P11509). Note: in other assays of this panel Not Active means under 50% inhibition at 10 µM.
T2 sequence (P11509 whole entry): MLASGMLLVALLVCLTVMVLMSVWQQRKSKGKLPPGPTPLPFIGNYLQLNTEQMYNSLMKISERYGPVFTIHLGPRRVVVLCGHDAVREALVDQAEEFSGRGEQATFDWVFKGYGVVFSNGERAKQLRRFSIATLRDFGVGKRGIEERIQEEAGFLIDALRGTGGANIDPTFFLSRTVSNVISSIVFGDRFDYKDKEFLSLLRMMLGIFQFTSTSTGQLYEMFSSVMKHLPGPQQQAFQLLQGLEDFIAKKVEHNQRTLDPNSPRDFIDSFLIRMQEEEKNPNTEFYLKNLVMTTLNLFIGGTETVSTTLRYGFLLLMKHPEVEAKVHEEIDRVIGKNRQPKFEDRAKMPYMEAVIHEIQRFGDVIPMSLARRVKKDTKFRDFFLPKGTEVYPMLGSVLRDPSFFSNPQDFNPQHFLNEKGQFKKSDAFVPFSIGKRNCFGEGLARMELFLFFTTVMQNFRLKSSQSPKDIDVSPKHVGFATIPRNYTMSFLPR
As to conditions: bti-tn-5b1-4.

For another data set, the target named is Melanocortin receptor 5 (Homo sapiens, UniProt P33032). The class given is cell membranes, Membrane. Particulars: hek293. Note: in other assays of this panel Not Active means under 50% inhibition at 10 µM.
Sequence of Melanocortin receptor 5 (P33032 whole entry): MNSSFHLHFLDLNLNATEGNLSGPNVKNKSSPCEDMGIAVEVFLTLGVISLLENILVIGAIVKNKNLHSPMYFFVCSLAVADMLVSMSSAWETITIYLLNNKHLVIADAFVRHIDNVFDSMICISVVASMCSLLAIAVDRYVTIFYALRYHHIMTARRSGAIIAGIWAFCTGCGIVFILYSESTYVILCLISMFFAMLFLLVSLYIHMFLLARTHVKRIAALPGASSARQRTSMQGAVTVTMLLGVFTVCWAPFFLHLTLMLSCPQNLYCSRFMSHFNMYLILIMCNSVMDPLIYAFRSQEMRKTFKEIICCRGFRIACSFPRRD

Sequence of Acetylcholinesterase (P22303 whole entry): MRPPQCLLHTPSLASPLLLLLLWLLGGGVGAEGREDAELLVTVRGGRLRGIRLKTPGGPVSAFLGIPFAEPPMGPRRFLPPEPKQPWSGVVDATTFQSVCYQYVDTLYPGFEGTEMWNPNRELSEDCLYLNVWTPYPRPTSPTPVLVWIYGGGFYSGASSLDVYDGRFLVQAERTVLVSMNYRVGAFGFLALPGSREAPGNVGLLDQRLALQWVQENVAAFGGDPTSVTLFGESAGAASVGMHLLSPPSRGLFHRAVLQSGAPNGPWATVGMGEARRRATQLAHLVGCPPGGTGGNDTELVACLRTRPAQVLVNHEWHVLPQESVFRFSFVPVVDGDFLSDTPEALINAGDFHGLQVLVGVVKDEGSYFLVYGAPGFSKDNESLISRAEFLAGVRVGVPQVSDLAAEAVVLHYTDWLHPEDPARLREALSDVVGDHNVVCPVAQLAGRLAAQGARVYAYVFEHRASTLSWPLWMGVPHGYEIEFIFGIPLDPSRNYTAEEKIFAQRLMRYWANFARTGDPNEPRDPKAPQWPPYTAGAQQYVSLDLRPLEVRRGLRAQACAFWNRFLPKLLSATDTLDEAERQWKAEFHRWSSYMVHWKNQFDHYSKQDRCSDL
Sequence of 5-hydroxytryptamine receptor 6 (P50406 whole entry): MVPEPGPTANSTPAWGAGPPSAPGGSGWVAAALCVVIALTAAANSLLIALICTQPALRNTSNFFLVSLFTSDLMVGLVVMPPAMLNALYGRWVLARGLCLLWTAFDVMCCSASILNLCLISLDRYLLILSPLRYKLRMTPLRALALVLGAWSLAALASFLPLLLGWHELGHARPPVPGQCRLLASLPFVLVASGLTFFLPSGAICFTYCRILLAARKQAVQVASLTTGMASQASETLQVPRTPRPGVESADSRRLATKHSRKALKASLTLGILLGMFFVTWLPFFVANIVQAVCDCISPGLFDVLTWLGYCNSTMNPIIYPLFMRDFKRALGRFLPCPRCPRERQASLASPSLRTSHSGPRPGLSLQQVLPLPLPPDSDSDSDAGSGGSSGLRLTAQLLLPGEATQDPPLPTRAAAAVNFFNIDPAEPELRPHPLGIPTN
Sequence of Matrix metalloproteinase-9 (P14780 whole entry): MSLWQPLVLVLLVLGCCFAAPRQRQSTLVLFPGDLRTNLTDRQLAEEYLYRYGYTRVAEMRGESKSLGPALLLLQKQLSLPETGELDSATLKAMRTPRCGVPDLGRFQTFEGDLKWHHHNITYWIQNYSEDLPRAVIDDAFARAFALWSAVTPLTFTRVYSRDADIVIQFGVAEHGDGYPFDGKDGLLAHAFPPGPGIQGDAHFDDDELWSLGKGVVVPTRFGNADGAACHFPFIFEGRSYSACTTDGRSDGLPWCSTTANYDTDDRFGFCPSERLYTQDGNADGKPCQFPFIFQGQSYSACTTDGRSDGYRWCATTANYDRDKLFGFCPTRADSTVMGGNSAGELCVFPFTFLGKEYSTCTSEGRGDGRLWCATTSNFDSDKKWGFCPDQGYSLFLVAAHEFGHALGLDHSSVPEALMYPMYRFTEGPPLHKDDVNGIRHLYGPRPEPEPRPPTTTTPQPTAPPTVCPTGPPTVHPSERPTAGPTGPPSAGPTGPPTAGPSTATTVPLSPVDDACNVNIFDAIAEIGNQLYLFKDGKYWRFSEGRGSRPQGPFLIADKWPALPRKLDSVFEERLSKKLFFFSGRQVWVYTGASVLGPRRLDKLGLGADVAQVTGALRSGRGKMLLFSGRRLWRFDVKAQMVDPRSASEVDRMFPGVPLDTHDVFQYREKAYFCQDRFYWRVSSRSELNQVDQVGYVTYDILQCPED
Sequence of Vasopressin V1a receptor (P37288 whole entry): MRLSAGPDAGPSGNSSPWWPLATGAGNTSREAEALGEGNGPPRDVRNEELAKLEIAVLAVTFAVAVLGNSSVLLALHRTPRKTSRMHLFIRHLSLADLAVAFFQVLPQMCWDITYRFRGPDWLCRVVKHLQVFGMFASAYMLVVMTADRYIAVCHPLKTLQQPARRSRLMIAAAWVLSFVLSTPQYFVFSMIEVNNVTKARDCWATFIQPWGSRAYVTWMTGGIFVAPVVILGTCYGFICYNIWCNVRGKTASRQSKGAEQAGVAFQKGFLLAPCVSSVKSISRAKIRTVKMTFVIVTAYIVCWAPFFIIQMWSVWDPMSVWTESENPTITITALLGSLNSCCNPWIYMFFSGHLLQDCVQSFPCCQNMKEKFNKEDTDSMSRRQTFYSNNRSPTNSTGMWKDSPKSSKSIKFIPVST

Usually pIC50 stands for the IC50 on a negative log10 scale, so that one unit is a factor of ten. For `O=C(c1ccc(OCCN2CCCCC2)cc1)c1c(-c2ccc(O)cc2)sc2cc(O)ccc12` [RALOXIFENE], the IC50 result (against Vasopressin V1a receptor; in data set [1]; in [2]; in data set [3]; against Thromboxane-A synthase; in data set [4]) was “Not Active” each time. Also, the IC50 result (in data set [5]; on Cytochrome P450 2A6; against Melanocortin receptor 5) was “Not Active” each time. The Ki entry (in data set [3]; in [4]; at Cytochrome P450 2A6) was “Not Active” in each case. Further, the pIC50 on Acetylcholinesterase (read-out: IC50) is 6.40.

Take `CNC(=C[N+](=O)[O-])NCCSCc1ccc(CN(C)C)o1` [RANITIDINE]: the IC50 result (against Vasopressin V1a receptor; in [1]; in data set [2]; in data set [3]; against Thromboxane-A synthase; in data set [4]) was “Not Active” in each case. Besides, the IC50 result (against Acetylcholinesterase; in data set [5]; on Cytochrome P450 2A6; at Melanocortin receptor 5) was “Not Active” in each case. For the same compound, the Ki result (in data set [3]; in data set [4]; on Cytochrome P450 2A6) was “Not Active” in each case.

Turning to `CO[C@H]1/C=C/O[C@@]2(C)Oc3c(C)c(O)c4c(c3C2=O)C2=NC3(CCN(CC(C)C)CC3)NC2=C(NC(=O)/C(C)=C\C=C\[C@H](C)[C@H](O)[C@@H](C)[C@@H](O)[C@@H](C)[C@H](OC(C)=O)[C@@H]1C)C4=O` [RIFABUTIN], the IC50 result (against Vasopressin V1a receptor; in data set [1]; in data set [2]; in [3]; against Thromboxane-A synthase; in [4]) was “Not Active” throughout. Moreover, the IC50 result (against Acetylcholinesterase; in data set [5]; on Cytochrome P450 2A6; against Melanocortin receptor 5) was “Not Active” each time. Further, the Ki result (in data set [3]; in data set [4]; at Cytochrome P450 2A6) was “Not Active” each time.

For `CC(C)CC(N(C)C)C1(c2ccc(Cl)cc2)CCC1` (stereo unspecified) [SIBUTRAMINE], the IC50 entry (at Vasopressin V1a receptor; in data set [1]; in data set [2]; in [3]; against Thromboxane-A synthase; in data set [4]) was “Not Active” each time. Further, the IC50 entry (on Acetylcholinesterase; in data set [5]; against Cytochrome P450 2A6; on Melanocortin receptor 5) was “Not Active” in each case. Moreover, the Ki result (in data set [3]; in data set [4]; at Cytochrome P450 2A6) was “Not Active” each time.

Turning to `[H]/N=C(/N)N[C@H]1[C@H](O)[C@@H](O)[C@H](O[C@@H]2O[C@@H](C)[C@](O)(C=O)[C@H]2O[C@@H]2O[C@@H](CO)[C@H](O)[C@@H](O)[C@@H]2NC)[C@@H](N/C(N)=N\[H])[C@@H]1O` [STREPTOMYCIN], the IC50 result (on Vasopressin V1a receptor; in data set [1]; in data set [2]; in data set [3]; against Thromboxane-A synthase; in [4]) was “Not Active” throughout. In addition, the IC50 entry (at Acetylcholinesterase; in data set [5]; against Cytochrome P450 2A6; against Melanocortin receptor 5) was “Not Active” in each case. Also, the Ki entry (in data set [3]; in data set [4]; at Cytochrome P450 2A6) was “Not Active” each time.

The pKi is the negative decadic logarithm of the Ki, by convention in mol/L. For the compound `COc1cc(NS(=O)(=O)c2ccc(N)cc2)nc(OC)n1` [SULFADIMETHOXINE], the IC50 result (against Vasopressin V1a receptor; in [1]; in data set [2]; in [3]; at Thromboxane-A synthase; in data set [4]) was “Not Active” each time. For the same compound, the IC50 entry at Acetylcholinesterase, on Cytochrome P450 2A6 and at Melanocortin receptor 5 was “Not Active” each time. Moreover, the Ki result (in [3]; in data set [4]; at Cytochrome P450 2A6) was “Not Active” throughout. Further, the pIC50 in data set [5] (read-out: IC50) was 5.87. The pKi in data set [5] (read-out: Ki) was 6.21.

Turning to `Cc1cc(C)nc(NS(=O)(=O)c2ccc(N)cc2)n1` [SULFAMETHAZINE], the IC50 entry (against Vasopressin V1a receptor; in [1]; in data set [2]; in data set [3]; at Thromboxane-A synthase; in data set [4]) was “Not Active” throughout. Also, the IC50 entry (against Acetylcholinesterase; in data set [5]; against Cytochrome P450 2A6; on Melanocortin receptor 5) was “Not Active” in each case. The Ki entry (in data set [3]; in data set [4]; on Cytochrome P450 2A6) was “Not Active” in each case.

In the case of `C[C@]1(Cn2ccnn2)[C@H](C(=O)O)N2C(=O)C[C@H]2S1(=O)=O` [TAZOBACTAM], the IC50 entry (on Vasopressin V1a receptor; in [1]; in data set [2]; against Thromboxane-A synthase; in [4]; at Acetylcholinesterase) was “Not Active” each time. The IC50 result (in data set [5]; at Cytochrome P450 2A6; against Melanocortin receptor 5) was “Not Active” throughout. The pIC50 in data set [3] (read-out: IC50) was 6.52. Further, the Ki entry (in data set [4]; at Cytochrome P450 2A6) was “Not Active” throughout.

Consider `CN1C(C(=O)Nc2ccccn2)=C(O)c2sccc2S1(=O)=O` [TENOXICAM], for which the IC50 entry (against Vasopressin V1a receptor; in data set [1]; in data set [2]; in data set [3]; against Thromboxane-A synthase; in [4]) was “Not Active” throughout. For the same compound, the IC50 entry (on Acetylcholinesterase; in [5]; against Cytochrome P450 2A6; on Melanocortin receptor 5) was “Not Active” in each case. Moreover, the Ki entry (in data set [3]; in data set [4]; at Cytochrome P450 2A6) was “Not Active” throughout.

`O=C1CCC(N2C(=O)c3ccccc3C2=O)C(=O)N1` (stereo unspecified) [THALIDOMIDE]: the IC50 result (against Vasopressin V1a receptor; in [1]; in [2]; in [3]; against Thromboxane-A synthase; in data set [4]) was “Not Active” each time. The IC50 entry (on Acetylcholinesterase; in [5]; against Cytochrome P450 2A6; against Melanocortin receptor 5) was “Not Active” each time. The Ki result (in data set [3]; in data set [4]; at Cytochrome P450 2A6) was “Not Active” in each case.

For the compound `Cc1cccc(Nc2ccncc2S(=O)(=O)NC(=O)NC(C)C)c1` [TORSEMIDE], the IC50 result (at Vasopressin V1a receptor; in data set [1]; in data set [2]; in data set [3]; against Thromboxane-A synthase; in [4]) was “Not Active” throughout. Further, the IC50 result (against Acetylcholinesterase; in data set [5]; at Cytochrome P450 2A6; on Melanocortin receptor 5) was “Not Active” throughout. The Ki result (in data set [3]; in [4]; on Cytochrome P450 2A6) was “Not Active” each time.

Take `CC(C)C[C@H](NC(=O)[C@@H](O)[C@H](N)Cc1ccccc1)C(=O)O` [UBENIMEX]: the IC50 entry (against Vasopressin V1a receptor; in [1]; in data set [2]; in data set [3]; against Thromboxane-A synthase; in [4]) was “Not Active” throughout. For the same compound, the IC50 result (against Acetylcholinesterase; in data set [5]; against Cytochrome P450 2A6; against Melanocortin receptor 5) was “Not Active” in each case. Also, the Ki result (in data set [3]; in data set [4]; on Cytochrome P450 2A6) was “Not Active” each time.
